Results from US5043154A, “Antibacterial, antiplaque, anticalculus oral composition” (priority 1989, dated 1991).

Columns and labels:
[1] = human clinical tests, reduction of plaque formation; type: in vivo
[2] = test system: four dental plaque organisms; assay: MIC test on the four dental plaque organisms, summary in words; type: cell-based; conditions: without TCHE
Experimental: (§1) Slurries and solutions described below are prepared to determine effectiveness in terms of minimum inhibitory concentration (MIC) of various antibacterial agents against a variety of oral bacterial organisms implicated in formation of plaque and leading to gingivitis on dental surfaces. Soft plaque contains about 1.7×10^11 organism/gm. (net weight). The antibacterial agents are admixed with anionic materials, particularly anionic surface active agent often commonly employed in oral compositions and polyphosphate anticalculus agent.
(§2) Minimum inhibitory concentration (MIC) of antibacterial agent is used to evaluate the efficacy of the agent in vitro. […] The smaller the MIC value the greater is the efficacy of the antibacterial agent to inhibit the growth of the bacteria. The in vitro MIC data is related to the efficacy of the dentifrice in vivo since retention and release of antibacterial agent into the oral cavity after toothbrushing is in the range of mcg/ml.

Bacteriodes gingivalis [3] = assay: Minimum inhibitory concentration (MIC) against Bacteriodes gingivalis, in vitro; type: cell-based
Experimental: as §1, §2

Bacteriodes intermedius = assay: Minimum inhibitory concentration (MIC) against Bacteriodes intermedius, in vitro; type: cell-based
Experimental: as §1, §2

[4] = test system: Actinobacillus actinomycetemcomitans; assay: Minimum inhibitory concentration (MIC) against Actinobacillus actinomycetemcomitans, in vitro; type: cell-based
Experimental: as §1, §2

Streptococcus mutans = assay: Minimum inhibitory concentration (MIC) against Streptococcus mutans, in vitro; type: cell-based
Experimental: as §1, §2

Bacteriodes gingivalis [5] = assay: inhibition of growth of Bacteriodes gingivalis by dentifrice extracts; type: cell-based; conditions: dentifrice containing anionic surfactant plus pyrophosphate with enzyme inhibitors Gantrez and NaF
Experimental: The dentifrice described in Example 3A is compared with the same composition except without any TCHE and with added 0.50 parts of water. Aqueous extracts of each dentifrice are prepared as follows: 50 ml of distilled water is added to 1.0 gm of each dentifrice, mixed well for a couple of hours with stirring bar and centrifuged, after which the supernatant is collected as aqueous extract. Antibacterial activity of the dentifrice extracts are evaluated on Bacteriodes gingivalis.

[6] = 0.5% TCHE, 1% SLS, 1% Gantrez, 2% Pyrophosphate and 0.2% NaF in water

CC(C)(C)CC(C)(C)c1ccc(OCCOCC[N+](C)(C)Cc2ccccc2)cc1 [BTC, benzethonium chloride]
reducing plaque formation ([1]; 0.075% BTC and 1% pyrophosphate dissolved in water): is not
reducing plaque formation ([1]; 0.075% BTC dissolved in water): effective in reducing plaque formation

N=C(NCCCCCCNC(=N)NC(=N)Nc1ccc(Cl)cc1)NC(=N)Nc1ccc(Cl)cc1 [CH, chlorhexidine digluconate]
reducing plaque formation ([1]; 0.1% CH and 1% sodium N-lauroyl sarcosinate dissolved in water): is not
reducing plaque formation ([1]; 0.1% CH dissolved in water): effective in reducing plaque formation

CCCCCCCCCCCCOS(=O)(=O)[O-].[Na+] [SLS, sodium lauryl sulfate]
antibacterial effect [2]: ineffective

Oc1cc(Cl)ccc1Oc1ccc(Cl)cc1Cl [TCHE, 2,4,4'-trichloro-2'-hydroxydiphenyl ether]
Minimum Inhibition Concentration (MIC), Bacteriodes gingivalis (Bacteriodes gingivalis [3]; 0.5% TCHE and 1% SLS in water): 2.5 µg/mL
Minimum Inhibition Concentration (MIC), Bacteriodes gingivalis (Bacteriodes gingivalis [3]; [6]): 2.5 µg/mL
Minimum Inhibition Concentration (MIC), Bacteriodes intermedius (Bacteriodes intermedius; 0.5% TCHE and 1% SLS in water): 2.5 µg/mL
Minimum Inhibition Concentration (MIC), Bacteriodes intermedius (Bacteriodes intermedius; [6]): 2.5 µg/mL
Minimum Inhibition Concentration (MIC), Actinobacillus actinomycetemcomitans ([4]; 0.5% TCHE and 1% SLS in water): 5.0 µg/mL
Minimum Inhibition Concentration (MIC), Actinobacillus actinomycetemcomitans [4, 6]: 5.0 µg/mL
Minimum Inhibition Concentration (MIC), Streptococcus mutans (Streptococcus mutans; 0.5% TCHE and 1% SLS in water): 25.0 µg/mL
Minimum Inhibition Concentration (MIC), Streptococcus mutans (Streptococcus mutans; [6]): 25.0 µg/mL
compatibility in dentifrice composition (Bacteriodes gingivalis [5]): compatible
